PMC7359024, “Synthesis, Structure–Activity Relationship, and Mechanistic Studies of Aminoquinazolinones Displaying Antimycobacterial Activity” (ACS Infectious Diseases, 2020)
Converted amounts (≈) assume the structure as drawn. Like-named read-outs stand apart in the source and are kept apart here.

What was measured:
Mtb H37Rv strain = assay: MIC90 determination in GASTE-Fe media (broth microdilution); type: cell-based, Mycobacterium tuberculosis; conditions: read-out: MIC90 GASTE-Fe
H37Rv Mtb strain = assay: MIC90 in different media, H37Rv strain; type: cell-based, Mycobacterium tuberculosis
in vivo = assay: in vivo; parameters: species or system C57/BL6 mice; conditions: for Vd / clearance / half-life / Tmax / Cmax: C57/BL6, in vivo; for clearance: read-out: CLtotal; for half-life: read-out: apparent t1/2 (converted); for Cmax: whole blood; for bioavailability: oral 20 mg/kg vs iv 5 mg/kg
Method: In vivo PK studies were performed on compound 1 (sulfone) and compound 2 (sulfoxide) (Table 3). All studies and procedures were conducted with prior approval of the animal ethics committee of the University of Cape Town (approval numbers 013/028 and 014/028) in accordance with the South African National Standard (SANS 10386:008) for the Care and Use of Animals for Scientific Purposes and guidelines from the Department of Health. […]
the South African National Standard (SANS 10386:008) for the Care and Use of Animals for Scientific Purposes,6 and guidelines from the Department of Health.7
The pharmacokinetic parameters of the compounds were determined by dosing the compound to C57/BL6 mice through oral (n = 3 mice) and intravenous (n = 3 mice) administration. For oral administration, the compounds were formulated in 0.5% hydroxypropylmethyl cellulose (HPMC) in Phosphate buffered saline pH 7.4. The intravenous doses were administered in dimethylacetamide-polyethylene glycol 400-polypropylene glycol (DMA-PEG400-PPG) (10:30:60) Blood samples were collected via tail bleeding at predetermined time points and stored at -80°C until liquid chromatography-tandem mass spectrometry (LC-MS/MS) analysis.
The whole-blood concentrations of the compounds were determined using a quantitative LC- […]
method, using ice -cold acetonitrile.
After centrifugation, the supernatant was transferred to 96 -well plates for analysis. LC -MS/MS was carried out on an AB Sciex 400 0 QTrap coupled to an Agilent 1200 high -performance liquid chromatograph (HPLC). Separation was achieved on a Kinetex PFP column column, using 0.1% formic acid in water as the aqueous mobile phase and 0.1% formic acid in acetonitrile as the organic mobile phase. The analytical limit of quantitation (LOQ) was 1 ng/ml. LC-MS/MS method accuracy and precision were 15% (nom) for the standards and […]
Concentration-versus-time data were used to derive the PK parameters using noncompartmental analys is on PK Solutions 2.0 (Summit Research Services, Montrose, CO,

in vitro = conditions: Chinese hamster
[1] = type: in vitro ADME; conditions: for Metabolic Stability H (% Rem.): human liver microsomes
Method: 3.2. Microsomal stability
The metabolic stability assay was performed in duplicate in a 96-well micro titre plate. The test compounds (0.1 μM) were incubated individually in mouse, rat and pooled human liver microsomes ((final protein concentration of 0.4 mg/mL; XenoTech, Lenexa, KS ), suspended in 0.1M phosphate buffer (pH 7.4) at 37 °C for predetermined time points, in the presence and absence of the cofactor NADPH (1 mM). Reactions were quenched by adding ice cold acetonitrile containing internal standard (carbamazepine, 0.0236 µg/mL). T he samples were centrifuged and test compound in the supernatant were analysed by means of LC -MS/MS (Agilent Rapid Resolution HPLC, AB SCIEX 4500 MS ). The relative loss of parent compound over time was monitored and plots (concentration vs. time) were prepared per compound to determine the first order rate constant for compound depletion. This was in turn used to calculate half-life, in vitro intrinsic clearance and in vivo hepatic extraction ratio. Metabolite searches were not conducted during the metabolic stability assay. 5

physchem = type: physicochemical; conditions: 25 °C, pH 7.4, aqueous buffer, kinetic solubility, pH 7.4, HPLC method
Method: The kinetic solubility assay was performed using a miniaturised shake flask method. 10 mM stock solutions of each of the test compounds were used to prepare calibration standards (10-220μM) in DMSO. The same 10mM stock solutions were accurately dispensed in duplicate into 96-well plates and the DMSO dried down (MiVac GeneVac, 90 min, 37 °C). Thereafter, the samples were reconstituted (200 µM) in phosphate buffered saline (pH 7.4) and shaken (20 hours, 25 °C). The solutions were filtered and analysed by means of HPLC -DAD (Agilent 1200 Rapid Resolution HPLC with a diode array detector). […]

recA expression = type: cell-based; conditions: indicator of genotoxic compounds
Erdman Mtb strain = assay: MIC90 in different media, Erdman strain; type: cell-based; conditions: Mycobacterium tuberculosis
[2] = tested on: cytochrome-bd oxidase knockout mutant strain (Δcyd); type: cell-based
iniB expression = type: cell-based; conditions: detects compounds targeting cell-wall biosynthesis
[3] = C57/BL6, mouse, in vivo, read-out: bioavailability
[4] = Mycobacterium tuberculosis, H37RV, 336 h, Mtb H37Rv, replicating conditions, GASTE-Fe media, read 14 days after incubation
[5] = 100 mg/kg oral once per day, 12 days, three days after last dose, untreated 6.51
[6] = Erdman, 7H12 + casitone + palmitic acid + BSA + catalase + Tween 80 (glycerol-free)
[7] = Mycobacterium tuberculosis, H37RV; 7H12 + casitone + palmitic acid + BSA + catalase + Tween 80 (glycerol-free); read-out: MIC90
[8] = Mycobacterium tuberculosis, H37RV; read-out: MIC90

Row | Structure (SMILES) | Vd (in vivo; mouse, iv 5 mg/kg) [L/kg] | clearance (in vivo; mouse, iv 5 mg/kg) [mL/min/kg] | half-life (in vivo; mouse, iv 5 mg/kg) [h] | Tmax (in vivo; mouse, oral 20 mg/kg) [h] | Cmax (in vivo; mouse, oral 20 mg/kg) [µM] | bioavailability (in vivo; [3]) [%] | AUC0–∞ (in vivo; mouse, iv 5 mg/kg) [min·μmol·L^–1] | AUC0–∞ (in vivo; mouse, oral 20 mg/kg) [min·μmol·L^–1] | IC50 (in vitro) [µM] | Metabolic Stability H (% Rem.) [1] | MIC90 (Mtb H37Rv strain; [4]) [µM] | solubility (physchem) [µM] | mean lung burdens (Mtb Erdman-Lux; [5]) [log10 CFU] | MIC (Erdman Mtb strain) [µg/mL] | MIC (Erdman Mtb strain; [6]) [µg/mL] | MIC (H37Rv Mtb strain; [7]) [µg/mL] | MIC (H37Rv Mtb strain; [8]) [µg/mL] | further results
1 | CO[C@H]1/C=C/O[C@@]2(C)Oc3c(C)c(O)c4c(O)c(c(/C=N/N5CCN(C)CC5)c(O)c4c3C2=O)NC(=O)/C(C)=C\C=C\[C@H](C)[C@H](O)[C@@H](C)[C@@H](O)[C@@H](C)[C@H](OC(C)=O)[C@@H]1C [Rifampicin, reference compound] |  |  |  |  |  |  |  |  |  |  |  |  |  |  |  |  |  | mean lung burdens (Mtb Erdman-Lux; mouse, in vivo): 5.72 log10 CFU; reduction of lung burdens (Mtb Erdman-Lux; mouse, in vivo): 0.8 log; MIC90 (Mtb H37Rv strain; Mycobacterium tuberculosis, H37RV, 336 h): 0.0039 µM (≈ 0.00321 µg/mL); MIC90 (H37Rv Mtb strain): <0.008 µg/mL; MIC (H37Rv Mtb strain; Mycobacterium tuberculosis, H37RV, read-out: MIC90): 0.016 µg/mL (≈ 0.0194 µM)
2 | CS(=O)(=O)c1cccc(-c2ccc3nc(N)n(-c4ccc(C(F)(F)F)cc4)c(=O)c3c2)c1 [compound 1, 2-Amino-6-(3-(methylsulfonyl)phenyl)-3-(4-(trifluoromethyl)phenyl)quinazolin-4(3H)-one] | 0.81 | 1.3 | 7.3 | 3 | 5.98 | 18 | 8589 | 7249 | > 100 | 97 % Rem. | < 0.244 | < 5 |  |  |  |  |  | AUC0–∞ (in vivo; 1 as metabolite of 2, mouse, oral 20 mg/kg of compound 2): 18430 min·μmol·L^–1; bioavailability (in vivo; mouse): 18.4%; Metabolic Stability M (% Rem.) ([1]; mouse liver microsomes): 92 % Rem.; Metabolic Stability R (% Rem.) ([1]; rat liver microsomes): 100 % Rem.; MIC90 (Mtb H37Rv strain; Mtb H37Rv, replicating conditions, GASTE-Fe media, read 14 days after incubation): <0.244 µM
3 | C[S+]([O-])c1cccc(-c2ccc3nc(N)n(-c4ccc(C(F)(F)F)cc4)c(=O)c3c2)c1 (stereo not drawn) [compound 2, 2-Amino-6-(3-(methylsulfinyl)phenyl)-3-(4-(trifluoromethyl)phenyl)quinazolin-4(3H)-one] | 11.1 | 21.8 | 6.2 | 0.5 | 3.54 | 93 | 523 | 2152 | > 100 | 88/-/- % Rem. | 0.64 (≈ 0.284 µg/mL) | 80 (≈ 35.5 µg/mL) | 7.84 | 1 (≈ 2.26 µM) | > 16 | > 16 | 0.5 (≈ 1.13 µM) | signal in PrecA-LUX reporter assay (recA expression): did not show a positive signal; mean lung burdens (Mtb Erdman-Lux; 200 mg/kg oral once per day, 12 days, three days after last dose, untreated 6.51): 7.75 log10 CFU; tolerability (Mtb Erdman-Lux; 100 and 200 mg/kg oral once per day, 12 consecutive days): no evidence of compound tolerability issues; efficacy in the BALB/c acute infection model (Mtb Erdman-Lux; 100 and 200 mg/kg oral, 12 days): lack efficacy; Δcyd GASTE-Fe MIC90 [2]: 2.5 µM; signal in PiniB-LUX reporter assay (iniB expression): did not show a positive signal
4 | CC[C@@H](CO)NCCN[C@@H](CC)CO [ethambutol, reference compound] |  |  |  |  |  |  |  |  |  |  |  |  | 4.15 |  |  |  |  | reduction of lung burdens (Mtb Erdman-Lux; 100 mg/kg, relative to untreated): 2.4 log
5 | NNC(=O)c1ccncc1 [isoniazid, reference compound] |  |  |  |  |  |  |  |  |  |  |  |  |  | 0.016 (≈ 0.117 µM) | 0.016 | 0.016 | 0.016 (≈ 0.117 µM) | 
